For this data set, the system named is Dkk1-LRP5-TCF-Luciferase. Description: Functional Dkk1-LRP5-TCF-Luciferase Assay in U2OS Cells. As to conditions: for fold induction at 2 µM / fold induction at 20 µM / EC50: Homo sapiens, U2OS; for fold induction at 2 µM: read-out: B = TCF ACTIVITY/DMSO CONTROL Fold induction @ 2.0 uM, 2.0 uM compound; for fold induction at 20 µM: read-out: C = TCF ACTIVITY/DMSO CONTROL Fold induction @ 20.0 uM, 20.0 uM compound; for A = MAX FOLD Induction/DMSO CONTROL: maximum fold induction over DMSO control.

As to `O=C(NCC1CN(c2nccc(-c3ccc4ccccc4c3)n2)C1)C(F)(F)F` [2,2,2-trifluoro-N-({1-[4-(2-naphthyl)pyrimidin-2-yl]azetidin-3-yl}methyl)acetamide], the fold induction at 2 µM came to 1.77.

For `O=Cc1ccc2cc(-c3ccnc(N4CCC(CNC(=O)C(F)(F)F)CC4)n3)ccc2c1` [2,2,2-trifluoro-N-({1-[4-(6-formyl-2-naphthyl)pyrimidin-2-yl]piperidin-4-yl}methyl)acetamide], the fold induction at 2 µM stood at 1.11 and the fold induction at 20 µM worked out at 0.04.

For `CN(CCN(C)[C@@H]1CCN(c2nccc(-c3ccc4ccccc4c3)n2)C1)C(=O)C(F)(F)F` [2,2,2-trifluoro-N-methyl-N-[2-(methyl{(3R)-1-[4-(2-naphthyl)pyrimidin-2-yl]pyrrolidin-3-yl}amino)ethyl]acetamide], the fold induction at 2 µM worked out at 1.5.

Consider `O=C(NC1CCCN(c2nccc(-c3ccc4ccccc4c3)n2)CC1)C(F)(F)F` (stereo not drawn) [2,2,2-trifluoro-N-{1-[4-(2-naphthyl)pyrimidin-2-yl]azepan-4-yl}acetamide], for which the fold induction at 2 µM is 1.1 and the fold induction at 20 µM came to 1.87.

On to `O=C(N[C@@H]1CCN(c2nccc(-c3ccc4ccccc4c3)n2)C1)C(F)(F)F` [2,2,2-trifluoro-N-{(3R)-1-[4-(2-naphthyl)pyrimidin-2-yl]pyrrolidin-3-yl}acetamide], for which the fold induction at 2 µM was determined as 1.97.

Turning to `O=C(N[C@H]1CCN(c2nccc(-c3ccc4ccccc4c3)n2)C1)C(F)(F)F` [2,2,2-trifluoro-N-{(3S)-1-[4-(2-naphthyl)pyrimidin-2-yl]pyrrolidin-3-yl}acetamide], the EC50 came out at 25.9 µM, the fold induction at 2 µM was 1.59, the fold induction at 20 µM is 1.66 and the “A = MAX FOLD Induction/DMSO CONTROL” value is on record as 3.620 fold.

Consider `CN1CCN(c2nccc(-c3ccc4ccccc4c3)n2)CC1` [2-(4-methylpiperazin-1-yl)-4-(2-naphthyl)pyrimidine], for which it took 15.5 µM to reach a half-maximal effect (EC50), the fold induction at 2 µM was found to be 1.16, the fold induction at 20 µM was determined as 1.81 and the “A = MAX FOLD Induction/DMSO CONTROL” value was determined as 2.960 fold.

For `CC1CCN(c2nccc(-c3ccc4ccccc4c3)n2)CC1` [2-(4-methylpiperidin-1-yl)-4-(2-naphthyl)pyrimidine], the fold induction at 2 µM was 1.51.

On to `CN(c1nccc(-c2ccc3ccccc3c2)n1)C1CCN(CC(N)=O)CC1` [2-(4-{methyl[4-(2-naphthyl)pyrimidin-2-yl]amino}piperidin-1-yl)acetamide], for which the fold induction at 2 µM is 2.62, the fold induction at 20 µM came out at 0.02 and the “A = MAX FOLD Induction/DMSO CONTROL” value is reported as 2.215 fold.

On to `CCN(CCO)[C@@H]1CCN(c2nccc(-c3ccc4ccccc4c3)n2)C1` [2-(ethyl{(3R)-1-[4-(2-naphthyl)pyrimidin-2-yl]pyrrolidin-3-yl}amino)ethanol], for which the fold induction at 2 µM is 1.8, the fold induction at 20 µM turned out to be 5.83 and the “A = MAX FOLD Induction/DMSO CONTROL” value is listed as 3.430 fold.

For the molecule `CCN(CCO)[C@H]1CCN(c2nccc(-c3ccc4ccccc4c3)n2)C1` [2-(ethyl{(3S)-1-[4-(2-naphthyl)pyrimidin-2-yl]pyrrolidin-3-yl}amino)ethanol], the response was half-maximal at 3.89 µM (EC50), the fold induction at 2 µM was 1.42, the fold induction at 20 µM worked out at 5.58 and the “A = MAX FOLD Induction/DMSO CONTROL” value was found to be 6.695 fold.

As for `NCCC1CN(c2nccc(-c3ccc4ccccc4c3)n2)C1` [2-[1-(4-naphthalen-2-ylpyrimidin-2-yl)azetidin-3-yl]ethanamine], the fold induction at 2 µM is 2.4.

For `c1ccc2cc(-c3ccnc(N4CCC(Cn5ccnc5)C4)n3)ccc2c1` (stereo not drawn) [2-[3-(1H-imidazol-1-ylmethyl)pyrrolidin-1-yl]-4-(2-naphthyl)pyrimidine], the fold induction at 2 µM stood at 1.28 and the fold induction at 20 µM was 0.38.

Take `c1ccc2cc(-c3ccnc(N4CCC(CN5CCC5)C4)n3)ccc2c1` (stereo not drawn) [2-[3-(azetidin-1-ylmethyl)pyrrolidin-1-yl]-4-(2-naphthyl)pyrimidine]: the fold induction at 2 µM stood at 1.73 and the “A = MAX FOLD Induction/DMSO CONTROL” value was determined as 2.500 fold.

Consider `ClCC1CCN(c2nccc(-c3ccc4ccccc4c3)n2)C1` (stereo not drawn) [2-[3-(chloromethyl)pyrrolidin-1-yl]-4-(2-naphthyl)pyrimidine], for which the fold induction at 2 µM worked out at 1.32 and the fold induction at 20 µM stood at 0.49.

As to `c1ccc2cc(-c3ccnc(N4CCC(Cn5ccnc5)CC4)n3)ccc2c1` [2-[4-(1H-imidazol-1-ylmethyl)piperidin-1-yl]-4-(2-naphthyl)pyrimidine], the EC50 turned out to be 11.7 µM, the fold induction at 2 µM worked out at 1.13, the fold induction at 20 µM came to 3.34 and the “A = MAX FOLD Induction/DMSO CONTROL” value is reported as 4.630 fold.

For `[N-]=[N+]=NCCC1CCN(c2nccc(-c3ccc4ccccc4c3)n2)CC1` [2-[4-(2-azidoethyl)piperidin-1-yl]-4-(2-naphthyl)pyrimidine], the fold induction at 2 µM came to 1 and the fold induction at 20 µM stood at 1.67.

Take `O=C(c1ccco1)N1CCN(c2nccc(-c3ccc4ccccc4c3)n2)CC1` [2-[4-(2-furoyl)piperazin-1-yl]-4-(2-naphthyl)pyrimidine]: the fold induction at 2 µM was 1.49, the fold induction at 20 µM stood at 3.62 and the “A = MAX FOLD Induction/DMSO CONTROL” value is listed as 1.630 fold.

As for `c1ccc2c(c1)CCN(c1nccc(-c3ccc4ccccc4c3)n1)C2` [2-[4-(2-naphthyl)pyrimidin-2-yl]-1,2,3,4-tetrahydroisoquinoline], the fold induction at 2 µM was 0.95 and the fold induction at 20 µM was determined as 1.38.

Turning to `c1ccc2cc(-c3ccnc(N4CCC5(CCNCC5)C4)n3)ccc2c1` [2-[4-(2-naphthyl)pyrimidin-2-yl]-2,8-diazaspiro[4.5]decane], the fold induction at 2 µM is 1.7.

Take `c1ccc2cc(-c3ccnc(N4CC[C@@H](n5ccnc5)C4)n3)ccc2c1` [2-[(3R)-3-(1H-imidazol-1-yl)pyrrolidin-1-yl]-4-(2-naphthyl)pyrimidine]: the fold induction at 2 µM amounted to 1.31, the fold induction at 20 µM is 3.9 and the “A = MAX FOLD Induction/DMSO CONTROL” value is reported as 1.960 fold.

Regarding `c1ccc2cc(-c3ccnc(N4CC[C@H](Cn5ccnc5)C4)n3)ccc2c1` [2-[(3R)-3-(1H-imidazol-1-ylmethyl)pyrrolidin-1-yl]-4-(2-naphthyl)pyrimidine], the fold induction at 2 µM worked out at 1.95, the fold induction at 20 µM was 3.04 and the “A = MAX FOLD Induction/DMSO CONTROL” value is 3.290 fold.

For the molecule `CN1CCN([C@@H]2CCN(c3nccc(-c4ccc5ccccc5c4)n3)C2)CC1` [2-[(3R)-3-(4-methylpiperazin-1-yl)pyrrolidin-1-yl]-4-(2-naphthyl)pyrimidine], the fold induction at 2 µM came out at 3.67, the fold induction at 20 µM came to 0.01 and the “A = MAX FOLD Induction/DMSO CONTROL” value was 1.020 fold.

For `CO[C@@H]1CCN(c2nccc(-c3ccc4ccccc4c3)n2)C1` [2-[(3R)-3-methoxypyrrolidin-1-yl]-4-(2-naphthyl)pyrimidine], the EC50 was 0.659 µM, the fold induction at 2 µM was determined as 1.36, the fold induction at 20 µM turned out to be 3.1 and the “A = MAX FOLD Induction/DMSO CONTROL” value is reported as 1.990 fold.

With `c1ccc2cc(-c3ccnc(N4CC[C@H](n5ccnc5)C4)n3)ccc2c1` [2-[(3S)-3-(1H-imidazol-1-yl)pyrrolidin-1-yl]-4-(2-naphthyl)pyrimidine], a half-maximal effect (EC50) was put at 3.93 µM, the fold induction at 2 µM is 1.29, the fold induction at 20 µM is 3.92 and the “A = MAX FOLD Induction/DMSO CONTROL” value was determined as 3.800 fold.

As for `c1ccc2cc(-c3ccnc(N4CC[C@@H](Cn5ccnc5)C4)n3)ccc2c1` [2-[(3S)-3-(1H-imidazol-1-ylmethyl)pyrrolidin-1-yl]-4-(2-naphthyl)pyrimidine], the fold induction at 2 µM is 1.27, the fold induction at 20 µM turned out to be 4.29 and the “A = MAX FOLD Induction/DMSO CONTROL” value is 2.430 fold.

With `CN1CCN([C@H]2CCN(c3nccc(-c4ccc5ccccc5c4)n3)C2)CC1` [2-[(3S)-3-(4-methylpiperazin-1-yl)pyrrolidin-1-yl]-4-(2-naphthyl)pyrimidine], the EC50 came to 0.696 µM, the fold induction at 2 µM is 5.69, the fold induction at 20 µM came to 0.01 and the “A = MAX FOLD Induction/DMSO CONTROL” value was 7.175 fold.

With `CO[C@H]1CCN(c2nccc(-c3ccc4ccccc4c3)n2)C1` [2-[(3S)-3-methoxypyrrolidin-1-yl]-4-(2-naphthyl)pyrimidine], the EC50 was determined as 2.58 µM, the fold induction at 2 µM was determined as 1.48, the fold induction at 20 µM turned out to be 2.27 and the “A = MAX FOLD Induction/DMSO CONTROL” value is reported as 1.755 fold.

As to `CCN(CCO)CC1CCN(c2nccc(-c3ccc4ccccc4c3)n2)CC1` [2-[ethyl({1-[4-(2-naphthyl)pyrimidin-2-yl]piperidin-4-yl}methyl)amino]ethanol], the fold induction at 2 µM is 4.93, the fold induction at 20 µM came to 0.01 and the “A = MAX FOLD Induction/DMSO CONTROL” value was 2.760 fold.

`CCN(CCO)CC1CCN(c2nccc(-c3ccc4ccccc4c3)n2)C1` (stereo not drawn) [2-[ethyl({1-[4-(2-naphthyl)pyrimidin-2-yl]pyrrolidin-3-yl}methyl)amino]ethanol]: the EC50 worked out at 2.26 µM, the fold induction at 2 µM stood at 2.8, the fold induction at 20 µM amounted to 0.01 and the “A = MAX FOLD Induction/DMSO CONTROL” value is 3.635 fold.

Turning to `CCN(CCO)C[C@H]1CCN(c2nccc(-c3ccc4ccccc4c3)n2)C1` [2-[ethyl({(3R)-1-[4-(2-naphthyl)pyrimidin-2-yl]pyrrolidin-3-yl}methyl)amino]ethanol], a half-maximal effect (EC50) was put at 2.92 µM, the fold induction at 2 µM is 2.93, the fold induction at 20 µM is 0.15 and the “A = MAX FOLD Induction/DMSO CONTROL” value is listed as 3.895 fold.

Regarding `CCN(CCO)C[C@@H]1CCN(c2nccc(-c3ccc4ccccc4c3)n2)C1` [2-[ethyl({(3S)-1-[4-(2-naphthyl)pyrimidin-2-yl]pyrrolidin-3-yl}methyl)amino]ethanol], the fold induction at 2 µM was determined as 3.48, the fold induction at 20 µM worked out at 0.04 and the “A = MAX FOLD Induction/DMSO CONTROL” value is on record as 3.540 fold.

Usually EC50 stands for the concentration that produces a half-maximal response. A higher EC50 goes with a less potent agent.

The record behind these values is US20090054392A1, “NAPHTHYLPYRIMIDINE, NAPHTHYLPYRAZINE AND NAPHTHYLPYRIDAZINE ANALOGS AND THEIR USE AS AGONISTS OF THE WNT-BETA-CATENIN CELLULAR MESSAGING SYSTEM” (Wyeth, priority 2007, published 2009).
